Test results from ChEMBL document CHEMBL1201862, “PubChem BioAssay data set” (2004).
The source made the active and inactive calls.

How the values were obtained:
[1] = blockers of CRF-binding protein–CRF-R2 complex – cell-based, uHTS hits, 384-well, dose response (AID 651639); format: functional, Homo sapiens; conditions: read-out: IC50_Mean
[2] = biological target: T1, Corticotropin-releasing factor receptor 2/Corticotropin-releasing factor-binding protein (Homo sapiens, UniProt P24387+Q13324); assay: activators of CRF receptor 2 with binding protein – uHTS hits, confirmation (AID 602473); format: functional; conditions: read-out: EC50_Mean
T1 sequence (Q13324 whole entry): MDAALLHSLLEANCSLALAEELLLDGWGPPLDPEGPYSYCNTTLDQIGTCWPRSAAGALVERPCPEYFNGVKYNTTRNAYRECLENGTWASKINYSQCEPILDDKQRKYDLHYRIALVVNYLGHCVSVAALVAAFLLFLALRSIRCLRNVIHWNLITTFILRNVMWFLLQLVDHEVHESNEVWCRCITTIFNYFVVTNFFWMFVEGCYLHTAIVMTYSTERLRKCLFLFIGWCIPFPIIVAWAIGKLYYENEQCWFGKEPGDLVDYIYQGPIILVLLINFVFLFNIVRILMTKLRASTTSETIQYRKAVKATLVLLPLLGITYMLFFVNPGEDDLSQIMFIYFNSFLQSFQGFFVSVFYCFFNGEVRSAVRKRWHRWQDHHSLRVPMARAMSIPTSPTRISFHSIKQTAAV
T1 sequence (P24387 whole entry): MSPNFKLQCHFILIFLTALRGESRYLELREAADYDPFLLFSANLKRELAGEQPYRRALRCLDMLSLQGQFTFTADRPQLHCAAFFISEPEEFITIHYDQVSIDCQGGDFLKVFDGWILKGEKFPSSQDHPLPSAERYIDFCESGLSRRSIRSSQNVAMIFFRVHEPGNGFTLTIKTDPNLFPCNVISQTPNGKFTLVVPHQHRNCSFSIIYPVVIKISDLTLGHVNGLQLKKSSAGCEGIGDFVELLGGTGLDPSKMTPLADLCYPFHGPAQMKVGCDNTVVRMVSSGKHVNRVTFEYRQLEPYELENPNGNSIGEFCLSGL

[3] = biological target: T1, Corticotropin-releasing factor receptor 2/Corticotropin-releasing factor-binding protein; assay: Dose Response confirmation of uHTS hits for small molecule antagonists of the CRF-binding protein and CRF-R2 receptor complex.; format: functional; conditions: read-out: IC50_Mean
[4] = biological target: Steroidogenic factor 1 (Homo sapiens, UniProt Q13285); assay: Counterscreen for inverse agonists of the liver receptor homolog-1 (LRH-1; NR5A2): Luminescence-based cell-based high throughput dose response assay to identify inverse agonists of the Steroidogenic Factor 1 Nuclear Receptor (SF1; NR5A1).; format: functional
[5] = nonselective StAR promoter luciferase inhibitors – cell-based, luminescence, luciferase reporter, counter-screen for LRH-1 inverse agonist project, dose response (AID 651969); format: functional
[6] = biological target: Nuclear receptor subfamily 5 group A member 2 (Homo sapiens, UniProt O00482); format: functional, cell-based;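 note: HEK293T cells transfected with LRH-1 and a StAR promoter luciferase reporter; potency for inhibitors that lower LRH-1 driven reporter light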
[7] = biological target: Protein Wnt-3a (Mus musculus, UniProt P27467); assay: antagonism of Wnt3a pathway luciferase reporter – Wnt-LIGHT cells, luminescence, selectivity assay for Gli-SUFU antagonist project, dose response (AID 651570); format: functional; conditions: read-out: IC50_Mean;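 note: Wnt-LIGHT reporter cells stimulated with conditioned medium from Wnt3a-producing cells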
[8] = reduction of Shn3 3'UTR-driven luciferase in osteoblasts – cell-based, Clone20 osteoblasts, firefly luciferase, cherry-picked, dose response (AID 624132); format: functional;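 note: firefly luciferase luminescence from reporter carrying the Shn3 3'UTR in osteoblasts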
[9] = non-specific 3'UTR reporter inhibition in Clone20-Shn3RL – cell-based, Renilla luciferase, cherry-picked, counter-screen for Shn3 inhibitor project, dose response (AID 624133); format: functional
[10] = microbe, parasite or virus in culture; format: functional; conditions: Mycobacterium tuberculosis
[11] = system: Vero; assay: cells; format: functional; conditions: Chlorocebus sabaeus
[12] = system: HEK293; assay: EBV LMP1 TES2 canonical NF-kB signalling blockers – cell-based, HEK293, luciferase, cherry-pick, dose response (AID 588343); format: functional; conditions: Homo sapiens
[13] = loss of viability in HepG2 cells – cell-based, CellTiter-Glo, cherry-picked, cytotoxicity control for Shn3 inhibitor project, dose response (AID 624134); format: functional
[14] = biological target: T2, Interleukin-8 (Homo sapiens, UniProt P10145); assay: Dose Response confirmation of uHTS small molecule hits for cystic fibrosis induced NFkb Inhibitors in a PAF-induced IL8 counterscreen.; format: functional; conditions: read-out: IC50_Mean
T2 sequence (P10145 whole entry): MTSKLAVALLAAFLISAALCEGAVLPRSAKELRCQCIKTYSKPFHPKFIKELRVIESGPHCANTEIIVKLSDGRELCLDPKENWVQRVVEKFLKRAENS

Sequence of Steroidogenic factor 1 (Q13285 whole entry): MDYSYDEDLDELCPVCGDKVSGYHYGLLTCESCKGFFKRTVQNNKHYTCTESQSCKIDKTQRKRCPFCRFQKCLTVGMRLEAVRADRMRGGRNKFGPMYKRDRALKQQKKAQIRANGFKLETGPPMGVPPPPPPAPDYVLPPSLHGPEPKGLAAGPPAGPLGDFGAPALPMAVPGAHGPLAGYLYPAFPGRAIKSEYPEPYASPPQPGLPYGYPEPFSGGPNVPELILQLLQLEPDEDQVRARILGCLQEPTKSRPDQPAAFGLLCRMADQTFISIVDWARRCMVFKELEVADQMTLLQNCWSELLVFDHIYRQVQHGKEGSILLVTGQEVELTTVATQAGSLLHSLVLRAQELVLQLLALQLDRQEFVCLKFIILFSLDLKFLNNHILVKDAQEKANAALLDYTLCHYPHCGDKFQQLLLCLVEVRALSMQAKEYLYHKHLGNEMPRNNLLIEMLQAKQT
Sequence of Nuclear receptor subfamily 5 group A member 2 (O00482 whole entry): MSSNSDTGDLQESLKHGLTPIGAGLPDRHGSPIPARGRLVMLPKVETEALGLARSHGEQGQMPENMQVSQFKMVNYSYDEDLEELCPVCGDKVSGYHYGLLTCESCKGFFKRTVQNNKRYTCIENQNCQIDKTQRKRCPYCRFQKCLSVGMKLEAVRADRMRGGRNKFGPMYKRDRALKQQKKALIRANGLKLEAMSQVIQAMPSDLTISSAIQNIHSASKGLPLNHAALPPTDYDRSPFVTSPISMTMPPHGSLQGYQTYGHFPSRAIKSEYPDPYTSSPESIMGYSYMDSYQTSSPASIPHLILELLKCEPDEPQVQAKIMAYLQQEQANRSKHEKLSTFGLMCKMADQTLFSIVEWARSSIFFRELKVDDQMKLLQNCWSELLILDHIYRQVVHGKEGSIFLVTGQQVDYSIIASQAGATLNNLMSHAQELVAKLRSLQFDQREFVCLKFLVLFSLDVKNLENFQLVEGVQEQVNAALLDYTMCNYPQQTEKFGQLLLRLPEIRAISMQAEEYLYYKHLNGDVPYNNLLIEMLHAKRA
Sequence of Protein Wnt-3a (P27467 whole entry): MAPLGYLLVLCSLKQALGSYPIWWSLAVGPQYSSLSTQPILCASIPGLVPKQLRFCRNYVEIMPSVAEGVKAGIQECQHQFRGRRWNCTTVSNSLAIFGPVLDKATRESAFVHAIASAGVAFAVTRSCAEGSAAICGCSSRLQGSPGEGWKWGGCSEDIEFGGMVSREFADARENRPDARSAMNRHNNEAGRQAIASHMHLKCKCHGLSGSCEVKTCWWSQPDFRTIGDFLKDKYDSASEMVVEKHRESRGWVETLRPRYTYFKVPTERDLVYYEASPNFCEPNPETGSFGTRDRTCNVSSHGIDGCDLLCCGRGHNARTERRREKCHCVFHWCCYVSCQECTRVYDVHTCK

Compound | IC50 [1] | EC50 [2] | IC50 [3] | IC50 [4] | IC50 [5] | IC50 [6] | AC50 [8] | AC50 [9] | further results
Nc1nnc(SCc2ccc(F)cc2Cl)s1 | 0.941 µM (active) | > 53 µM (inactive) | 14.3 µM (active) |  |  |  |  |  | 
COc1ccc(C2Nc3ccccc3C(=O)N2c2ccccc2)cc1CSc1ccccn1 (configuration not stated) | 17.3 µM (active) | > 53 µM (inactive) | 2.16 µM (active) |  |  |  |  |  | 
CCCc1cc(=O)oc2cc(C)cc(OCC(=O)NC3CC3)c12 |  |  |  | 0.0932 µM (active) | 35.9 µM (inactive) | 1.31 µM (active) |  |  | 
O=C(COc1ccc2c3c(c(=O)oc2c1)CCCC3)NCc1ccccn1 |  |  |  | 35.9 µM (inactive) | 35.9 µM (inactive) | 35.9 µM (inactive) |  |  | 
O=C(N[C@@H]1C/C=C\C[C@H](CC(=O)N(CCO)Cc2ccccc2)C(=O)NC[C@@H](c2ccccc2)OC1=O)OCC1c2ccccc2-c2ccccc21 |  |  |  |  |  |  | 4.5 µM (active) | 4.9 µM (active) | IC50 [7]: 4.4 µM (active)
CCOC(=O)Oc1c(OC)cc(C(=O)O[C@@H]2C[C@@H]3CN4CCc5c([nH]c6cc(OC)ccc56)[C@H]4C[C@@H]3[C@H](C(=O)OC)[C@H]2OC)cc1OC [SYROSINGOPINE] |  |  |  |  |  |  | 10.7 µM (active) | 22.4 µM (active) | CC50 [10]: 24.6 µM (active); CC50 [11]: 11.9 µM (active); AC50 [12]: 24.6 µM (active); AC50 [13]: 50.6 µM (active); IC50 [14]: > 79 µM (inactive)
